From patent publication US12121518B2, “PARP-1 and methods of use thereof” (The Board of Supervisors of Louisiana State University and …, priority 2017, dated 2024)
Entries after “also recorded” stand apart in the source; their conditions may differ.

How the values were obtained:
[1] = system: APC^Min-induced tumor burden; assay: APC^Min/+ spontaneous intestinal tumorigenesis mouse model; format: in vivo; conditions: APC^Min/+ mice; for intestinal tumor burden: assessed at 16 weeks of age
Source text: If chronic inflammation is the sole mechanism by which PARP-1 participates in colon tumorigenesis, then the ability to severely block inflammation upon inhibition of the enzyme, pharmacologically or genetically, should almost entirely alleviate the tumor burden. According to the above data, however, this is not the case. […] In general, APC^Min/+ mice have a rather short lifespan and often die not only as a result of tumor burden but also due to development of severe anemia, substantial cachexia, and/or intestinal intussusceptions. To this end, C57BL/6 PARP-1^+/− and PARP-1^−/− mice were generated in the APC^Min/+ background (FIG. 39). PARP-1 heterozygosity provided remarkable protection against tumor development (FIG. 33A). […] Conversely, PARP-1 knockout promoted an increase in the number of small tumors.
Tumor models, assessment of tumor burden and adoptive transfer—For the azoxymethane/Dextran Sulfate Sodium (AOM/DSS)-induced tumorigenesis model, six to eight weeks old WT, PARP-1^+/− or PARP-1^−/− mice received a single dose (10 mg/kg) of AOM, i.p., followed by 4 cycles of 1.25% DSS provided in drinking water. Each cycle consisted of a week of DSS water separated by 2 weeks of regular water. […] At week 22 after the start of the experimental protocol, mice were sacrificed by CO2 asphyxiation. Colons, spleens, and blood were collected for analysis. Colons were opened longitudinally and washed with PBS to assess the tumor burdens using a dissecting microscope. For the APC^Min-mediated model, APC^Min/+, APC^Min/+PARP-1^+/−, or APC^Min/+PARP-1^−/− male mice were sacrificed at 16 weeks of age. […] Sacrificed mice were processed as described above except that the tumor burden was assessed along the whole intestinal track. Tumors were counted and divided in groups lower than 2 mm, 2-4 mm, and tumors bigger than 4 mm in diameter.
(§1) Tissue processing, immunohistochemistry, immunofluorescence and cytokines measurement—Some tissues were fixed in buffered formalin (10%), paraffin-embedded, then sectioned. Serial sections were subjected to H&E staining, immunohistochemistry (IHC) or immunofluorescence, as described (33), with antibodies to PCNA (Novusbio, Littleton, CO), COX-2 (Santa Cruz Biotechnology, Santa Cruz, CA), ICAM-1 (Santa Cruz Biotechnology), CD8 (Santa Cruz Biotechnology), or Gr1 (eBioscience, San Diego, USA) as previously described (34). Some of the sections were subjected to immunofluorescence with antibodies to CD8 or Gr1. Blood, collected by cardiac puncture, was run through a Microtainer Serum Separator tube (BD, Franklin Lake, NJ). The collected sera were immediately stored at −80° C. for future use and analysis. Cytokine levels were assessed for TNF-α (ELM-TNFα-1), IL-6 (ELM-IL-6-1), and MCP-1 (ELM-MCP1) by ELISA (all from RayBiotech, Norcross, GA) according to the manufacturer's instructions and recommendations.

[2] = system: MC-38 cell-based tumors; assay: MC-38 cell-based syngeneic colon cancer mouse model; format: in vivo
Source text: Mice that received vehicle increased in size in a time-dependent manner and were sacrificed at day 16.
For the syngeneic tumor models, six to eight weeks old WT, PARP-1^+/−, or PARP-1^−/− mice were subcutaneously inoculated with 2.5×10^5 MC-38 cells. In some experiments, MC-38 cells transfected with p193-PGK-SB100X and pKT2PGK-BsdGFP_CLP-Luc plasmids (flanked by Sleeping Beauty transposons) and sorted by FACS. Selected cells were then engrafted onto mice as described above. When tumors became palpable (at day 4-6), WT mice were randomized and assigned to the different experimental groups. […] Tumor volumes were measured with a digital caliper or assessed using GFP/Luc-Biophotonic Imaging (Xenogen IVIS200, PerkinElmer, Boston, MA). Tumors were measured by the greatest longitudinal diameter (length) and the greatest transverse diameter (width) using a digital caliper. Tumor volumes were calculated using the following formula: tumor volume=(length×width^2)/2. For luciferase imaging, tumor-bearing mice received 150 mg/kg of D-luciferin potassium salt solution (PerkinElmer, Boston, MA) i.p. five minutes prior to anesthetic induction and imaging. Bioluminescence within a predetermined region of interest (ROI) on each mouse was quantified in photons/sec/cm^2/sr. At the end of the protocol (day 20-24), mice were sacrificed and tumors were harvested for further processing and analysis. For the adoptive transfer experiments, 3×10^6 BM-MDSCs derived from WT mice or vehicle were injected, intratumorally, into WT or PARP-1^+/− mice. The MDSCs were delivered at five injection sites at days 8 and 16 following engraftment of MC-38 cells.
as §1

In the case of O=C(c1cc(Cc2n[nH]c(=O)c3ccccc23)ccc1F)N1CCN(C(=O)C2CC2)CC1 [olaparib], the intestinal tumor burden ([1]; 5 mg/kg i.p. twice a week) is reported as “good protection against the tumor burden; also recorded: good protection against tumor development”, the intestinal tumor burden ([1]; 5 mg/kg i.p. twice a week, listed as Olaparib) is reported as “reduces the tumor burden” and the intestinal tumor burden ([1]; 25 mg/kg i.p. twice a week) is reported as “no protection against the burden; also recorded: no significant protection”. The systemic inflammation [1] was “effective at blocking systemic inflammation”, the “cachexia (body weight)” value ([1]; high dose (25 mg/kg)) was “did not” and the “cachexia (body weight)” value ([1]; moderate dose (5 mg/kg)) was “protected against cachexia”. The tumor size ([2]; 0.2 mg/kg, WT mice, from palpable tumors) was “barely increased above the size the tumors at the day 5; also recorded: more effective at reducing the tumor burden”, the tumor size ([2]; 1 mg/kg, WT mice, from palpable tumors (day 6)) was “very effective at blocking tumor growth” and the tumor size ([2]; 5 mg/kg, WT mice, from palpable tumors) was “relatively smaller than those of WT; also recorded: significant reduction in the size of MC-38 cell-based tumors”. For the same compound, the “tumor progression (tumor volume)” value ([2]; WT mice, olaparib 0.2 mg/kg on alternate days, anti-PD-1 100 μg/mouse every 4 days, alone or combined) was “significantly reduced the progression of MC-38 tumors”, the “intratumoral ICAM-1 immunoreactivity as a surrogate for inflammation” value ([2]; both doses (0.2 and 5 mg/kg)) was “reduction in inflammation” and the “systemic inflammation (TNF-α, IL-6 and MCP-1 in sera)” value ([2]; both doses (0.2 and 5 mg/kg)) was “moderately reduced”.
